Source: US10258602B2 (Ocera Therapeutics, Inc., priority 2007, dated 2019)

Tests used:
[1] = target: human growth hormone secretagogue receptor (hGHS-R1a) (Homo sapiens, UniProt Q92847); assay: Competitive radioligand binding assay (ghrelin receptor), standard method A; settings: binding activity at the human ghrelin receptor, standard method A
Source text: A competitive binding assay at the human growth hormone secretagogue receptor (hGHS-R1a) can be carried out analogously to assays described in the literature. (Bednarek, M. A.; et al. J. Med. Chem. 2000, 43, 4370-4376; Palucki, B. L.; et al. Bioorg. Med. Chem. Lett. […], 11, 1955-1957.) See also U.S. patent application Ser. Nos. 11/149,512 and 11/149,731. Binding activity at the gherlin receptor for representative compounds of the present invention is shown in the Examples below.

[2] = target: GHS-R1a receptor (human ghrelin receptor) (Homo sapiens, UniProt Q92847); assay: Aequorin functional assay (ghrelin receptor), standard method B; format: cell-based; settings: functional activity at the human ghrelin receptor, standard method B (Aequorin)
Source text: B. Aequorin Functional Assay (Ghrelin Receptor)
See also U.S. patent application Ser. Nos. 11/149,512 and 11/149,731. (LePoul, E.; et al. J. Biomol. Screen. 2002, 7, 57-65; Bednarek, M. A.; et al. J. Med. Chem. 2000, 43, 4370-4376; Palucki, B. L.; et al. Bioorg. Med. Chem. Lett. 2001, 11, 1955-1957.) Functional activity at the gherlin receptor for representative compounds of the present invention is presented in the Examples.

[3] = Pharmacokinetic analysis (oral bioavailability, elimination half-life) in the rat; format: in vivo; settings: oral administration, 8 mg/kg dose, HPLC-MS
Source text: D. Pharmacokinetic Analysis of Representative Compounds of the Invention
The pharmacokinetic behavior of compound of the invention can be ascertained by methods well known to those skilled in the art. (Wilkinson, G. R. “Pharmacokinetics: The Dynamics of Drug Absorption, Distribution, and Elimination” in Goodman & Gilman's The Pharmacological Basis of Therapeutics, Tenth Edition, Hardman, J. G.; Limbird, L. E., Eds., McGraw Hill, Columbus, Ohio, 2001, Chapter 1.) The following method was used to investigate the pharmacokinetic parameters (elimination half-life, total plasma clearance, etc.) for intravenous, subcutaneous and oral administration of compounds of the present invention. See also U.S. patent application Ser. No. 11/149,512 and Ser. No. 11/149,731 and Intl. Pat. Appl. No. PCT/US2007/017905.
The table below presents oral bioavailability and elimination half-life data in the rat for representative compounds of the present invention. The parameters were determined by HPLC-MS after oral administration of an 8 mg/kg dose of the compound, except for compound 822 where a 2 mg/kg dose was used.

[4] = system: fasted rats; assay: Gastric emptying in fasted rat model, standard method E; format: in vivo; settings: average where repeated
Protocol: E. Gastric Emptying in Fasted Rat Model
To examine the effects of compounds of the invention in a model for gastroparesis, compounds were evaluated for possible effects on gastric emptying in fasted rats. This model is used to determine the potential of compounds of the invention to promote motility in fasted rats.
• 1. Overnight-fasted rats (male, Wistar, 200 g, n=5/group) were given a meal (2 mL) of methylcellulose (2%) by intragastric gavage. The meal was labeled with phenol red (0.05%). • 2. Test articles (dosed at various concentrations, typically 1, 3, 10, 30 mg/kg), vehicle and positive control (metoclopramide, a 5-HT ligand and prokinetic agent currently prescribed for the treatment of GI disorders, including gastroparesis) were administered by oral gavage immediately after the meal (time=0). • 3. […] Total phenol red remaining in the stomach was quantified by a colorimetric method at 560 nm. • 5. A 30% or more increase in gastric emptying (as compared to the vehicle control) was considered significant. • 6. One-way ANOVA, Dunnet's post-hoc statistical test was applied Results
The effects of representative compounds of the invention in the rat gastric emptying model described in standard method E are provided in the following table. In cases where an experiment was conducted multiple times, the average of the individual results is presented.

[5] = system: human plasma; assay: Plasma protein binding, human plasma (equilibrium dialysis); format: in vitro ADME; settings: test concentration 3 μg/mL
Source text: J. Plasma Protein Binding
The pharmacokinetic and pharmacodynamic properties of drugs are largely a function of the reversible binding of drugs to plasma or serum proteins such as albumin and α1-acid glycoprotein. In general, only unbound drug is available for diffusion or transport across cell membranes, and for interaction at the pharmacological target. On the other hand, drugs with low plasma protein binding generally have large volumes of distribution and rapid clearance since only unbound drug is available for glomerular filtration and, in some cases, hepatic clearance. Thus, the extent of plasma protein binding can influence efficacy, distribution and elimination. The ideal range for plasma protein binding is in the range of 87-98% for most drug products.
Protein binding studies were performed using human plasma. Briefly, 96-well microplates were used to incubate various concentrations of the test article for 60 min at 37° C. Bound and unbound fractions are separated by equilibrium dialysis, where the concentration remaining in the unbound fraction is quantified by LC-MS or LC-MS-MS analysis. […].
The table below presents protein binding data for representative compounds of the present invention in both human and rat plasma.

human growth hormone secretagogue receptor (hGHS-R1a), sequence (Q92847 whole entry): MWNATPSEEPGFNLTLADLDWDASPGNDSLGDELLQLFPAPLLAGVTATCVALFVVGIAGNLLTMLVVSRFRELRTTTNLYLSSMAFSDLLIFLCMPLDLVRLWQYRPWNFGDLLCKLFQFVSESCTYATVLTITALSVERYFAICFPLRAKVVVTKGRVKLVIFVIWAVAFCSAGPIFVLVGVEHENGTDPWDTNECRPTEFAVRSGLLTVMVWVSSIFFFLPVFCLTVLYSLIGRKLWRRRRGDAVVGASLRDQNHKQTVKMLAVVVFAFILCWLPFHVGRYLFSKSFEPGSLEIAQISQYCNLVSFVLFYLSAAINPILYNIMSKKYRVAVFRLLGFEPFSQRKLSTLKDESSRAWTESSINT
GHS-R1a receptor (human ghrelin receptor), sequence (Q92847 whole entry): as above

| Structure (SMILES) | Ki [1] | Elimination Half-life (t1/2, rat, min) [3] | Oral Bioavailability (rat, % F) [3] | other results |
| --- | --- | --- | --- | --- |
| C[C@@H]1CN[C@@H](C2CCCCC2)C(=O)N(C)[C@H](C)C(=O)N[C@H](Cc2ccc(O)cc2)C(=O)NCCCc2ncccc2O1 [Compound 1062] | ≤ 0.01 µM |  |  | EC50 [2]: ≤ 0.05 µM |
| C[C@@H]1CN[C@@H](C2CC2)C(=O)N(C)[C@H](C)C(=O)N[C@H](Cc2ccc(O)cc2)C(=O)NCCCc2ccccc2O1 [Compound 989] | ≤ 0.1 µM | 138 min | 7 % F |  |
| CC(C)C[C@H]1NC(=O)[C@@H](C)N(C)C(=O)[C@H](C2CC2)NC[C@@H](C)Oc2cccnc2CCCNC1=O [Compound 999] |  | 122 min | 9 % F |  |
| CC1CNC(C2CCCCC2)C(=O)N(C)C(C)C(=O)NC(Cc2ccc(O)cc2)C(=O)NCCCC2CCCCC2O1 (mixture of isomers) [Compound 829] | ≤ 0.001 µM | 45 min | 8 % F | Percent Increase in Gastric Emptying After Oral Administration ([4]; dose 3 mg/kg): 28%; Human Plasma Protein Binding (%) [5]: 91.6% |
| CCN(CC)CCNC(=O)c1cc(Cl)c(N)cc1OC [metoclopramide] |  |  |  | Percent Increase in Gastric Emptying After Oral Administration ([4]; dose 30 mg/kg): 35% |
| CC1C(=O)NC(Cc2ccc(O)c(F)c2)C(=O)NCCCc2ncccc2OCCNC(C2CC2)C(=O)N1C (mixture of isomers) [Compound 1078] | ≤ 0.1 µM |  |  |  |
| CC[C@H](C)[C@@H]1NC[C@@H](C)Oc2ccccc2CCCNC(=O)[C@@H](Cc2ccncc2)NC(=O)[C@@H](C)N(C)C1=O [Compound 978] | ≤ 0.1 µM |  |  |  |
| CC1C(=O)NC(Cc2ccc(O)cc2)C(=O)NCCCc2c(F)cccc2OCCNC(C2CC2)C(=O)N1C (centres unmarked) [Compound 1110] | ≤ 0.1 µM |  |  |  |
| C[C@@H]1CN[C@@H](C2CC2)C(=O)N(C)[C@H](C)C(=O)N[C@H](Cc2ccc(O)cc2)C(=O)N(C)CCCc2ccccc2O1 [Compound 1069] | ≤ 0.1 µM | 128 min | 32 % F |  |
| C[C@@H]1CN[C@@H](C2CC2)C(=O)N(C)[C@H](C)C(=O)N[C@H](Cc2ccc(F)cc2)C(=O)NCCC(C)(C)c2ccccc2O1 [Compound 1071] | ≤ 0.5 µM |  |  |  |
| C[C@@H]1CN[C@@H](C2CC2)C(=O)N(C)[C@H](C)C(=O)N[C@H](Cc2ccc(F)cc2)C(=O)NCCCc2cc(F)c(F)cc2O1 [Compound 950] | ≤ 0.5 µM |  |  |  |
| C[C@@H]1CN[C@@H](C2CC2)C(=O)N(C)[C@H](C)C(=O)N[C@H](C(C)(C)c2ccc(F)cc2)C(=O)NCCCc2ccccc2O1 [Compound 1035] | ≤ 0.1 µM |  |  |  |
| C[C@@H]1CN[C@@H](C2CC2)C(=O)N(C)[C@H](C)C(=O)N[C@H](Cc2ccccc2)C(=O)NCCCc2ncccc2O1 [Compound 1028] | ≤ 0.1 µM |  |  |  |
| C[C@@H]1C(=O)N[C@H]([C@@H](C)c2ccc(O)cc2)C(=O)NCCCc2ncccc2OCCN[C@@H](C2CC2)C(=O)N1C [Compound 1080] | ≤ 0.1 µM |  |  |  |
| CC(C)C[C@H]1NC(=O)[C@@H](C)N(C)C(=O)[C@H](C2CC2)NCCOc2ccccc2CC[C@H](C)NC1=O [Compound 1084] | ≤ 0.1 µM |  |  |  |
| C[C@@H]1C(=O)N[C@H](Cc2ccc(O)cc2)C(=O)NCCCc2ccc(F)c(F)c2OCCN[C@@H](C2CC2)C(=O)N1C [Compound 818] | ≤ 0.01 µM |  |  | Percent Increase in Gastric Emptying After Oral Administration ([4]; dose 3 mg/kg): 11% |
| CC(C)[C@@H]1NC[C@H](C)Oc2ccccc2CCCNC(=O)[C@@H](Cc2ccccc2)NC(=O)[C@@H](C)N(C)C1=O [Compound 870] | ≤ 0.5 µM |  |  |  |
| CCC[C@@H]1NC[C@@H](C)Oc2ccccc2CCCNC(=O)[C@@H](Cc2ccc(OC)cc2)NC(=O)[C@@H](C)N(C)C1=O [Compound 866] | ≤ 0.1 µM |  |  |  |

Now from value to compound, other results behind:

| Ki [1] | Elimination Half-life (t1/2, rat, min) [3] | Oral Bioavailability (rat, % F) [3] | Structure (SMILES) | other results |
| --- | --- | --- | --- | --- |
| ≤ 0.1 µM |  |  | CC(C)[C@@H](O)[C@H]1NC(=O)[C@@H](C)N(C)C(=O)[C@H](C2CC2)NC[C@@H](C)Oc2ccccc2CCCNC1=O [Compound 1058] | EC50 [2]: ≤ 0.1 µM |
| ≤ 0.01 µM | 268 min | 22 % F | C[C@@H]1CN[C@@H](C2CC2)C(=O)N(C)[C@H](C)C(=O)N[C@H](Cc2ccc(F)cc2)C(=O)N[C@@H](C)CCc2ccccc2O1 [Compound 1011] |  |
| ≤ 0.1 µM |  |  | CC[C@H](C)[C@@H]1NC[C@@H](C)Oc2ccccc2CCCNC(=O)[C@@H](Cc2cccnc2)NC(=O)[C@@H](C)N(C)C1=O [Compound 976] | EC50 [2]: ≤ 0.4 µM |
| ≤ 0.1 µM | 46 min | 6 % F | C[C@@H]1CN[C@@H](C2CC2)C(=O)N(C)[C@H](C)C(=O)N[C@H](Cc2ccc(F)cc2)C(=O)NCCCc2ncccc2O1 [Compound 1027] |  |
| ≤ 0.1 µM | 42 min | 11 % F | C[C@@H]1CN[C@@H](C2CC2)C(=O)N(C)[C@H](C)C(=O)N[C@H](Cc2ccc(F)cc2)C(=O)NCCCc2cccc(F)c2O1 [Compound 935] |  |
| ≤ 0.1 µM | 223 min | 22 % F | C[C@@H]1CN[C@@H](C2CC2)C(=O)N(C)[C@H](C)C(=O)N[C@H](Cc2ccc(F)cc2)C(=O)NCCCc2ccc(F)cc2O1 [Compound 854] |  |
| ≤ 0.001 µM | 120 min | 15 % F | CC1CNC(C2CC2)C(=O)N(C)C(C)C(=O)NC(CC2CCCCC2)C(=O)NCCCC2CCCCC2O1 (mixture of isomers) [Compound 831] | Percent Increase in Gastric Emptying After Oral Administration ([4]; dose 3 mg/kg): 32% |
| ≤ 0.01 µM | 31 min | 4 % F | CC(C)C[C@H]1NC(=O)[C@@H](C)N(C)C(=O)[C@H](C2CC2)NCCOc2c(F)cccc2CCCNC1=O [Compound 813] | Percent Increase in Gastric Emptying After Oral Administration ([4]; dose 3 mg/kg): 11% |
| ≤ 0.01 µM | 77 min | 22 % F | C[C@@H]1CN[C@@H](C2CC2)C(=O)N(C)[C@H](C)C(=O)N[C@H](Cc2ccc(Cl)cc2)C(=O)NCCCc2ccccc2O1 [Compound 862] |  |
| ≤ 0.1 µM | 34 min | 11 % F | CC(C)C[C@H]1NC(=O)[C@@H](C)N(C)C(=O)[C@H](C2CC2)NC[C@@H](C)Oc2c(F)cccc2CCCNC1=O [Compound 979] |  |
| ≤ 0.1 µM |  |  | C[C@@H]1CN[C@@H](C2CC2)C(=O)N(C)[C@H](C)C(=O)N[C@H](Cc2cc(F)c(F)c(F)c2)C(=O)NCCCc2ccccc2O1 [Compound 1041] |  |
| ≤ 0.01 µM |  |  | C[C@@H]1C(=O)N[C@H](Cc2ccccc2Cl)C(=O)NCCCc2ccccc2OCCN[C@@H](C2CC2)C(=O)N1C [Compound 872] |  |
| ≤ 0.01 µM |  |  | C[C@@H]1C(=O)N[C@H](Cc2ccc(F)cc2)C(=O)NCCCc2ccc(F)c(F)c2OCCN[C@@H](C2CC2)C(=O)N1C [Compound 1100] |  |
